Data on 25 compounds can be found in ChEMBL document CHEMBL1201862, “PubChem BioAssay data set” (2004).

Common to all, as to experiment: inhibition of tumour cell growth, NCI panel, 48 h
Experiment [1] relates to HOP-18.
The subject of experiment [2] is SNB-78.
For experiment [3], the system named is RXF 631.
The test system of experiment [4] is DLD-1.
Experiment [5] relates to DMS-273.
In experiment [6] the test system is LXFL 529.
For experiment [7], the system named is DMS-114.
In experiment [8] the test system is KM-20L2.
Experiment [9] has as its system XF498.

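Dose response: 5 concentrations. Exposure: 48 h. Format: 96-well plates. Endpoint: linear interpolation; highest concentration if not reached. At the GI50, growth is halved.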 Activity calls are given as the source filed them. Rule as the data show it: active = GI50 up to about 1.1 µM and inactive = higher.

`COc1cc(/C=C(\C)c2ccc3c(c2)OCO3)cc(OC)c1OC`: the GI50 in [1] is 64 µM (inactive); in [2], 37.9 µM (inactive); in [3], 28.6 µM (inactive); in experiment [4] it was 18.5 µM (inactive); in [5], 26 µM (inactive); in experiment [6], 14.7 µM (inactive). Besides, the GI50 in [7] is 25.1 µM (inactive); in [8], 32.4 µM (inactive).
In the case of `COc1ccc(CCc2ccccc2CC(=O)O)cc1`, the GI50 in experiment [1], in experiment [2], in [4], in experiment [5], in [6] and in [7] was > 100 µM (inactive) in each case. Moreover, the GI50 in experiment [9] and in experiment [8] was > 100 µM (inactive) in each case.
Consider `COc1ccc(S(=O)(=O)NNS(C)(=O)=O)cc1OC`, for which the GI50 in experiment [4], in experiment [5], in experiment [6], in experiment [9] and in [8] was > 100 µM (inactive) throughout.
Regarding `CCCCCCCCCCCCCP(=O)(NCC(N)=O)OCC` (stereo not given), the GI50 in experiment [1] was 2.38 µM (inactive); in experiment [2] it was 20 µM (inactive); in experiment [3], 18.9 µM (inactive); in experiment [4], 17.1 µM (inactive); in experiment [6], 16.8 µM (inactive); in experiment [7] it was 15.2 µM (inactive). Besides, the results for the GI50 in experiment [9] and in [8] were 19.1 µM (inactive) and 17.4 µM (inactive), respectively.
Regarding `CCc1cccc(C)c1NC(=O)CC1C(=O)Nc2ccccc2S1(=O)=O` (stereo not given), the GI50 is 21.1 µM (inactive) in experiment [2]; 14.2 µM (inactive) in [3]; 15.8 µM (inactive) in experiment [4]; 7.01 µM (inactive) in experiment [5]; 16.7 µM (inactive) in experiment [6]; 16.8 µM (inactive) in experiment [7]. For the same compound, the GI50 in experiment [9] was 12.5 µM (inactive); in experiment [8], 18.5 µM (inactive).
As for `CC(=O)CC(=O)NC=O`, the GI50 in experiment [1], in experiment [2], in [3], in experiment [4], in [5] and in experiment [6] was > 100 µM (inactive) each time. Besides, the GI50 in [7], in experiment [9] and in [8] was > 100 µM (inactive) each time.
With `C/C(=C\c1ccccc1)C(=O)c1c(C)cc(C)cc1C`, the GI50 in [1], in [4], in experiment [6], in experiment [7], in [9] and in [8] was > 100 µM (inactive) in each case.
Turning to `CC[C@@H]1OC2(C)CC(S(=O)(=O)c3ccccc3)CC1O2` (stereo not given in full), the GI50 in experiment [1], in experiment [2], in experiment [3], in [4], in experiment [5] and in [6] was > 100 µM (inactive) each time. The GI50 in experiment [7] and in [8] was > 100 µM (inactive) throughout.
`CC(=O)C1CC2(c3ccccc3)C(=O)c3ccccc3N2O1` (stereo not given): the GI50 in [1], in [2], in [4], in experiment [5], in [6] and in experiment [7] was > 100 µM (inactive) throughout. For the same compound, the GI50 in [9] and in [8] was > 100 µM (inactive) throughout.
As for `Nc1ccc(C(=O)N/C(=C\c2ccc3c(c2)OCO3)c2nc3c(O)nc(S)nc3[nH]2)cc1`, the GI50 in [2], in experiment [3], in [4], in [6], in experiment [9] and in experiment [8] was > 100 µM (inactive) each time.
As for `CC(=O)N(C(C)=O)c1c(N)n(C)c(=O)[nH]c1=O`, the GI50 in experiment [3], in [4], in [5], in experiment [6], in experiment [7] and in experiment [9] was > 100 µM (inactive) in each case. In experiment [8], the GI50 is > 100 µM (inactive).
Turning to `CN(C)c1ccc(/C=C(/NC(=O)c2ccccc2)c2nc3cc(Cl)ccc3[nH]2)cc1`, the GI50 was 2.42 µM (inactive) in [1]; 63.1 µM (inactive) in experiment [2]; 34.4 µM (inactive) in [4]; 32.4 µM (inactive) in experiment [5]; 30.1 µM (inactive) in [6]; 27.7 µM (inactive) in experiment [8].
With `CCOC(=O)C(C)(C)Oc1ccc2c(-c3ccc(Cl)cc3)cc(=O)oc2c1`, the GI50 in [3], in experiment [4], in experiment [5], in experiment [6], in experiment [7] and in experiment [8] was > 100 µM (inactive) in each case.
Take `CC1SC2=NC3=C(c4ccccc4C3=O)C(c3ccc(F)cc3)N2C1=O` (stereo not given): the GI50 was > 100 µM (inactive) in experiment [4]; > 100 µM (inactive) in experiment [5]; 86.3 µM (inactive) in experiment [6]; 95.7 µM (inactive) in [7]; 89.7 µM (inactive) in [9]; > 100 µM (inactive) in [8].
As for `Nc1ccccc1[S+]([O-])c1ccccc1` (stereo not given), the GI50 in [1], in experiment [5], in [6], in experiment [7], in [9] and in experiment [8] was > 100 µM (inactive) each time.
As for `C=C(CN(C)C)C(=O)c1ccccc1OC`, the GI50 in [1] was 6.08 µM (inactive); in experiment [2], 25.6 µM (inactive); in [4], 4.49 µM (inactive); in experiment [5], 17.2 µM (inactive); in experiment [6] it was 3.68 µM (inactive); in experiment [7], 21.1 µM (inactive). Besides, the GI50 in experiment [9] was 17.9 µM (inactive); in experiment [8], 26.2 µM (inactive).
Consider `Nc1ccc(Nc2nc(F)nc(-c3c4ccccc4c4n3CCS4)n2)cc1`, for which the GI50 was 13.8 µM (inactive) in [1]; 36.1 µM (inactive) in experiment [2]; 15 µM (inactive) in experiment [3]; 16.7 µM (inactive) in experiment [4]; 10.4 µM (inactive) in [5]; 14.9 µM (inactive) in experiment [6]. The results for the GI50 in [7], in [9] and in [8] were 17.1 µM (inactive), 4.91 µM (inactive) and 18.1 µM (inactive), respectively.
Take `O=C(NCCCCCCCCNC(=O)c1cccc2ccccc12)c1cccc2ccccc12`: the GI50 was 21 µM (inactive) in [1]; 13.4 µM (inactive) in experiment [2]; 13.9 µM (inactive) in [3]; > 100 µM (inactive) in experiment [4]; 52.8 µM (inactive) in experiment [5]; > 56.5 µM (inactive) in [6]. The GI50 in experiment [7] was 42.6 µM (inactive); in experiment [9] it was 4.44 µM (inactive); in experiment [8], > 100 µM (inactive).
Regarding `O=C1C=CN(C2OC(CO)C(O)C2O)C(=O)C1` (stereo not given), the GI50 was 557 µM (inactive) in [1], 24.6 µM (inactive) in [4], 1730 µM (inactive) in experiment [5] and 67.3 µM (inactive) in experiment [8].
`CCC(C)CC(C)CC(C)/C=C(\C)C1=C(C)CC(C)(O)O1` (stereo not given): the GI50 in [1] is > 100 µM (inactive); in [2], 86.9 µM (inactive); in experiment [3], > 100 µM (inactive); in experiment [4], > 100 µM (inactive); in [5], 98.4 µM (inactive); in experiment [6], 53 µM (inactive). Besides, the GI50 in experiment [7] is 64.1 µM (inactive).
As for `C[C@@H]1C2=CC[C@@]3(C)C(CCC3[C@H](C)[C@H]3C[C@@]4(C)O[C@@](c5cccnc5)(O3)OC4(C)C)[C@@H]2C2OC2[C@@]12CCC(=O)O2` (stereo not given in full), the GI50 was 20.5 µM (inactive) in [1]; 85.1 µM (inactive) in experiment [2]; 49.1 µM (inactive) in experiment [4]; 37.5 µM (inactive) in experiment [5]; 35.5 µM (inactive) in [6]; 33 µM (inactive) in experiment [7]. Also, the GI50 in experiment [8] was 31.8 µM (inactive).
`COC(=O)[C@@]12OC[C@]34C([C@@H](O)C1O)[C@@]1(C)CC(=O)C(O)=C(C)C1C[C@H]3OC(=O)[C@H](OC(=O)/C=C(/c1ccccc1)C(F)(F)F)[C@H]42` (stereo not given in full): the GI50 in experiment [1] was 6.3 µM (inactive); in [2], 9.1 µM (inactive); in experiment [4], 5.41 µM (inactive); in [5], 0.989 µM (active); in [6] it was 2.65 µM (inactive); in experiment [7], 4.19 µM (inactive). Further, the results for the GI50 in [9] and in experiment [8] were 2.22 µM (inactive) and 3.92 µM (inactive), respectively.
As for `C=C[C@]1(C)CC(O)C2C(=C)C(=O)OC2[C@H]1C(=C)C=O` (stereo not given in full), the GI50 is 5.41 µM (inactive) in [1]; 3.56 µM (inactive) in experiment [2]; 2.08 µM (inactive) in [4]; 1.64 µM (inactive) in experiment [6]; 5.73 µM (inactive) in experiment [7]; 5.47 µM (inactive) in [8].
For `CCC1(O)C(=O)OCc2c1cc1n(c2=O)Cc2cc3ccc(CO)cc3nc2-1` (stereo not given), the GI50 in experiment [1] is 5.46 µM (inactive); in experiment [3], 3.31 µM (inactive); in [4] it was 51.3 µM (inactive); in experiment [5] it was 1.12 µM (active); in [6], 26.7 µM (inactive); in experiment [7] it was 1.82 µM (inactive). Besides, the GI50 is 1.29 µM (inactive) in experiment [9] and 13.5 µM (inactive) in experiment [8].
As for `CC(=O)OC(C)(C)/C=C/C(=O)[C@](C)(O)[C@H]1[C@H](O)C[C@@]2(C)[C@@H]3CC=C4[C@@H](C=C(O)C(=O)C4(C)C)[C@]3(C)C(=O)C[C@]12C` [CUCURBITACIN E], the GI50 in experiment [1] was 0.06 µM (active); in experiment [2], 0.0914 µM (active); in experiment [3] it was 0.0406 µM (active); in experiment [4], 0.0302 µM (active); in experiment [5], 0.0241 µM (active); in experiment [6], 0.0339 µM (active). Moreover, the figures for the GI50 in experiment [7], in [9] and in [8] were 0.0715 µM (active), 0.0356 µM (active) and 0.0197 µM (active), respectively.
